Measured values reported in publication PMC12560828, “Chemical structure drives developmental toxicity of alkyl-substituted naphthalenes in zebrafish” (Environment international, 2025).

Key:
[1] = system: early life stage zebrafish (Danio rerio) embryos; experiment: Developmental toxicity morphology screen, sealed rotating vial exposure; format: in vivo; design: bmd, MO24 / bmd, MORT / bmd, ANY_ / bmd, AXIS / bmd, CRAN / bmd, EDEM / bmd, LTRK / bmd, MUSC / bmdL, ANY_ / bmdU, ANY_ / bmdL, AXIS / bmdU, AXIS / bmdL, CRAN / bmdU, CRAN / bmdL, EDEM / bmdU, EDEM / bmdL, LTRK / bmdU, LTRK / bmdL, MO24 / bmdU, MO24 / bmdL, MORT / bmdU, MORT: unit not given here; details: for BMC50 Any effect: Fig. 2 heatmap, exposure 6-24 hpf in vials, summary of all endpoints; for any effect BMD50: SI-T5
Experimental: (§1) When embryos were 6 hpf they were bleached in groups of 1000 or less to limit bacterial growth in sealed vials. Embryos were placed in a strainer for transfer between solutions in 500 mL containers. […] Pools of eight embryos were placed into 2 mL clear glass screw cap exposure vials with polyvinyl-faced pulp liner (Avantar Radnor, PA, United States) using a glass Pasteur pipette. Excess EM was removed, and 2 mL of fresh EM was immediately added. A total of 10 uL of 200x working stock (in DMSO) was added to each vial, then immediately capped and inverted three times to mix. […] Vials were loaded into a custom 3D printed vial holder for slow end-over-end rotation in a dark 28 °C incubator overnight. […] At 24 hpf, embryos were removed from exposure vials and singulated into 96-well plates loaded with 100 μL chemical-free EM. Each exposure vial group was maintained in plate columns. After loading into 96-well plates, embryos were assessed for 24-hour mortality. For the remainder of the exposure, plates were kept stationary at 28 °C in the dark, until 120 hpf when morphology screening and the larval photo motor response (LPR) assay were conducted, section 2.3.2 and section 2.3.3, respectively.
Each treatment group was replicated over four vials, resulting in 32 embryos per treatment, split over two replicate 96-well plates per chemical. […] All reported concentrations were nominal water concentrations and are included in SI-T4.
At 24 hpf embryos were assessed for mortality (MO24). At 120 hpf embryos were assessed for abnormality in […] morphological endpoints: mortality (MORT), edemas (EDEM), bent axis (AXIS), touch response (TCHR), craniofacial (CRAN), muscular/cardiovascular (MUSC), lower trunk (LRTK), brain (BRAN), skin (SKIN), and notochord malformations (NC). Morphological assessments were made by a team of three to four individuals. The team was blinded to the identity, plate layout, and concentrations of the chemicals, thereby minimizing bias in morphological screening assessment. To ensure the assessments were consistent, concentration–response reproducibility of a parathion ethyl quality control plate was performed along with each experimental exposure set up. Details of all measured endpoints can be found at Developmental toxicity zebrafish phenotype atlas. […] Each endpoint was scored as a binary presence/absence and scores were compiled into an “Any effect” endpoint, the presence of abnormality in any individual endpoint.
The Any effect percent was used to calculate the BMC50, 50 % change relative to the background for each endpoint and chemical. All values were reported as the nominal exposure concentration.

[2] = system: zebrafish larvae, 120 hpf; experiment: Larval photomotor response (LPR) assay after vial exposure; format: in vivo, Danio rerio; details: for fold_change: LPR
Experimental: as §1
Each treatment group was replicated over four vials, resulting in 32 embryos per treatment, split over two replicate 96-well plates per chemical. […] Vial groups of plated larvae were tracked to assess the impact of the vial on the results. All reported concentrations were nominal water concentrations and are included in SI-T4.
The LPR assay was conducted at 120 hpf. […] Larval movement was tracked throughout minutes 6–24. Animals dead or morphologically abnormal were excluded from the analysis, and if more than 30 % of the wells in a treatment group were excluded, the treatment was removed.
Movement values were binned into 6s intervals, log normalized and used to calculate area under the curve (AUC). AUC values from the first cycle after calibration were used to calculate the LEL for each period (light and dark).

[3] = system: zebrafish embryos, gene expression at 48 hpf; experiment: Targeted transcriptomics (TempO-Seq S1500+ zebrafish panel), differential expression; format: in vivo, Danio rerio; details: 20 μM, result in words
Experimental: Targeted transcriptomics were performed using the Biospyder™ TempO-Seq™ 96-well plate platform. This platform used detector oligos for a gene set of 3112 probes selected through data driven approaches and expert curation ([Balik-Meisner et al., 2019]). The targeted transcriptomics approach was selected to maximize the number of chemicals that could be included in the analysis while managing cost and data analysis requirements. Targeted transcriptomics were limited to 96 samples, three chemicals without morphological effects were excluded from the analysis to ensure n = 4 per chemical and n = 6 controls, excluded chemicals are indicated in SI-T3.
A single exposure concentration of 20 μM was chosen as the maximum possible concentration to elicit a biological response that also ensured enough viable animals for RNA collection for every chemical. The same concentration per chemical was chosen as opposed to a phenotypically anchored concentration due to variability in 48 hpf survival across chemicals at the same 120 hpf percent effect and to allow for a direct comparison of chemical potency and transcriptomic response. 48 hpf was chosen to ensure the measurement of transcriptomic responses prior to the emergence of observable phenotypic effects. This timepoint has been used extensively and enhanced the ability to compare our results across datasets. Exposure was conducted over two days, chemicals were split into day groups by numerical order of randomly generated internal labels, 11 chemicals and control each day, n = 48 embryos across six vials per treatment. Exposure was conducted as previously described in section 2.3. At 48 hpf embryos were collected for RNA extraction. Embryos from two exposure vials were kept for morphological effect assessments which were as expected based on screening results. From the remaining wells, six phenotypically normal embryos were collected and pooled in their vial groups into 1.5 mL Eppendorf tubes, placed on ice (~30 sec), excess medium was removed, placed back on ice (~30 sec), and 200 μL RNA shield was added. […] of n = 6 pooled embryos were collected from each treatment.
RNA was extracted from exposure groups on day one and day two. 100 μL of lysis buffer was added to each tube containing pooled embryo samples and 200 μL of RNA shield, the full contents of the tube were then transferred to the homogenization plate (2 mL deep 96-well plate pre-filled with 400 μL 1 mm zirconium beads and 500 μL of lysis buffer). The plate was homogenized for 1.5 min using the Mini-BeadBeater 96 (BioSpec Products, Bartlesville, OK, United States) and centrifuged for five min at 3000 rcf. 550 μL of the supernatant was distributed over two plates, each pre-filled with 275 μL of ethanol. RNA extraction was performed using the KingFisher Apex System (ThermoFisher Scientific, Waltham, MA, United States) and Quick-RNA Magbead kit (Zymo Research Corporation, Irvine, CA, Untied States). Briefly, this automated process uses Mag beads to collect RNA from the sample, after a series of washes and treatment with DNase the RNA is eluted in 50 μL of ultra-pure water. RNA quality was assessed using the 4150 TapeStation System (Agilent, Santa Clara, CA, United States). All samples used had RNA integrity number (RIN) scores >9.8. RNA concentration was determined using Quant-iT RNA Reagent and assay kit and Varioskan ALF multi-mode plate reader (ThermoFisher Scientific, Waltham, MA, United States) in duplicate, samples with high variability (coefficient of variance (CV) > 10) between reads were repeated in triplicate. The average of the quantification reads was used for RNA concentration normalization. […] All 94 samples were normalized using ultra-pure water to the lowest concentration sample − 14.9 ng/μL. […]

[4] = benchmark dose, morphology endpoint ANY_ (any effect)
[5] = period dark, round 1, conc 3.125
[6] = period dark, round 1, conc 6.25
[7] = period dark, round 1, conc 12.5
[8] = period light, round 1, conc 3.125
[9] = period light, round 1, conc 6.25
[10] = period light, round 1, conc 12.5
[11] = benchmark dose, morphology endpoint AXIS

## Cc1ccc(C)c2c(C)cccc12 [1,4,5-trimethylnaphthalene]
[1]; Fig. 2, nominal concentration
  BMC50 MO24 (mortality at 24 hpf): 27.7 µM
  BMC50 MORT (mortality at 120 hpf): 23.5 µM
[1]; nominal concentration
  BMC50 Any effect: 19.7 µM
[1]
  any effect BMD50: 19.74 µM
[1]; benchmark dose, endpoint MO24
  bmd, MO24: 27.7283
[1]; benchmark dose, endpoint MORT
  bmd, MORT: 23.5002
[1]; [4]
  bmd, ANY_: 19.7402
[2]; 120 hpf, light/dark periods, result in words
  LPR behavioral effect: hyperactivity during the light period
[2]; [5]
  fold_change: 0.1634
[2]; [6]
  fold_change: 0.08749
[2]; [7]
  fold_change: -0.2344
[2]; period dark, round 2, conc 12.8
  fold_change: 0.03668
[2]; period dark, round 2, conc 16
  fold_change: -0.1932
[2]; period dark, round 2, conc 20
  fold_change: 0.4872
[2]; [8]
  fold_change: -0.0344
[2]; [9]
  fold_change: 0.04487
[2]; [10]
  fold_change: 0.5316
[2]; period light, round 2, conc 12.8
  fold_change: 0.4664
[2]; period light, round 2, conc 16
  fold_change: -0.1141
[2]; period light, round 2, conc 20
  fold_change: 1.443
[3]
  nt5dc2 expression: decreased expression

## CCCCc1ccc2ccccc2c1 [2-butylnaphthalene]
[1]; Fig. 2, nominal concentration
  BMC50 AXIS (curved or bent body axis at 120 hpf): 31.7 µM
  BMC50 CRAN (craniofacial malformation at 120 hpf): 32.3 µM
  BMC50 EDEM (pericardial and/or yolk sac edema at 120 hpf): 37.1 µM
  BMC50 LTRK (lower trunk and/or caudal fin at 120 hpf): 32.6 µM
  BMC50 MO24 (mortality at 24 hpf): 45.9 µM
  BMC50 MORT (mortality at 120 hpf): 29.2 µM
[1]; nominal concentration
  BMC50 Any effect: 13.8 µM
[1]
  any effect BMD50: 13.76 µM
[1]; endpoint MO24, benchmark dose
  bmd, MO24: 45.9226
[1]; endpoint MO24, lower limit of benchmark dose
  bmdL, MO24: 34.5575
[1]; endpoint MO24, upper limit of benchmark dose
  bmdU, MO24: 71.8256
[1]; endpoint MORT, benchmark dose
  bmd, MORT: 29.2083
[1]; endpoint MORT, lower limit of benchmark dose
  bmdL, MORT: 24.1073
[1]; endpoint MORT, upper limit of benchmark dose
  bmdU, MORT: 36.5916
[1]; morphology endpoint ANY_, benchmark dose
  bmd, ANY_: 13.7563
[1]; morphology endpoint ANY_, lower limit of benchmark dose
  bmdL, ANY_: 11.3562
[1]; morphology endpoint ANY_, upper limit of benchmark dose
  bmdU, ANY_: 16.7056
[1]; morphology endpoint AXIS, benchmark dose
  bmd, AXIS: 31.7332
[1]; morphology endpoint AXIS, lower limit of benchmark dose
  bmdL, AXIS: 20.8074
[1]; morphology endpoint AXIS, upper limit of benchmark dose
  bmdU, AXIS: 68.8189
[1]; morphology endpoint CRAN, benchmark dose
  bmd, CRAN: 32.2639
[1]; morphology endpoint CRAN, lower limit of benchmark dose
  bmdL, CRAN: 21.7357
[1]; morphology endpoint CRAN, upper limit of benchmark dose
  bmdU, CRAN: 64.257
[1]; morphology endpoint EDEM, benchmark dose
  bmd, EDEM: 37.0933
[1]; morphology endpoint EDEM, lower limit of benchmark dose
  bmdL, EDEM: 25.0511
[1]; morphology endpoint EDEM, upper limit of benchmark dose
  bmdU, EDEM: 73.9212
[1]; morphology endpoint LTRK, benchmark dose
  bmd, LTRK: 32.6419
[1]; morphology endpoint LTRK, lower limit of benchmark dose
  bmdL, LTRK: 22.6339
[1]; morphology endpoint LTRK, upper limit of benchmark dose
  bmdU, LTRK: 59.8583
[2]; [5]
  fold_change: -0.7788
[2]; [6]
  fold_change: -1.395
[2]; [7]
  fold_change: -2.279
[2]; [8]
  fold_change: 0.2651
[2]; [9]
  fold_change: -0.6707
[2]; [10]
  fold_change: 0.432

## Cc1ccc2ccccc2c1 [2-methylnaphthalene]
[1]; 0-50 μM, result in words
  morphological effects (BMC50 for any morphological endpoint): no morphological BMC50 values
[2]; [5]
  fold_change: 0.03896
[2]; [6]
  fold_change: -0.06284
[2]; [7]
  fold_change: 0.2024
[2]; period dark, round 1, conc 25
  fold_change: 0.07059
[2]; period dark, round 1, conc 50
  fold_change: -0.2156
[2]; [8]
  fold_change: -0.3603
[2]; [9]
  fold_change: -0.05115
[2]; [10]
  fold_change: 0.6486
[2]; period light, round 1, conc 25
  fold_change: 0.2057
[2]; period light, round 1, conc 50
  fold_change: 0.2253

## CCc1ccc2cc(CC)ccc2c1 [2,6-diethylnaphthalene]
[1]; Fig. 2, nominal concentration
  BMC50 AXIS (curved or bent body axis at 120 hpf): 46.9 µM
  BMC50 MO24 (mortality at 24 hpf): 38.1 µM
  BMC50 MORT (mortality at 120 hpf): 39.2 µM
[1]; nominal concentration
  BMC50 Any effect: 18.8 µM
[1]
  any effect BMD50: 18.77 µM
[1]; benchmark dose, endpoint MO24
  bmd, MO24: 38.0576
[1]; benchmark dose, endpoint MORT
  bmd, MORT: 39.1942
[1]; [4]
  bmd, ANY_: 18.7673
[1]; [11]
  bmd, AXIS: 46.8649
[2]; [5]
  fold_change: 0.178
[2]; [6]
  fold_change: -0.04909
[2]; [7]
  fold_change: -0.5724
[2]; period dark, round 1, conc 25
  fold_change: -0.5473
[2]; [8]
  fold_change: -0.07519
[2]; [9]
  fold_change: 0.5876
[2]; [10]
  fold_change: 0.2476
[2]; period light, round 1, conc 25
  fold_change: 0.1223

## CCc1cccc2ccccc12 [1-ethylnaphthalene]
[1]; Fig. 2, nominal concentration
  BMC50 AXIS (curved or bent body axis at 120 hpf): 43.9 µM
  BMC50 CRAN (craniofacial malformation at 120 hpf): 46.3 µM
  BMC50 MO24 (mortality at 24 hpf): 44.6 µM
  BMC50 MORT (mortality at 120 hpf): 41.9 µM
[1]; nominal concentration
  BMC50 Any effect: 33.7 µM
[1]
  any effect BMD50: 33.7 µM
[1]; benchmark dose, endpoint MO24
  bmd, MO24: 44.6047
[1]; benchmark dose, endpoint MORT
  bmd, MORT: 41.9285
[1]; [4]
  bmd, ANY_: 33.6977
[1]; [11]
  bmd, AXIS: 43.8887
[1]; benchmark dose, morphology endpoint CRAN
  bmd, CRAN: 46.3281
[2]; [5]
  fold_change: 0.05526
[2]; [6]
  fold_change: 0.06428
[2]; [7]
  fold_change: -0.02558
[2]; period dark, round 1, conc 25
  fold_change: -0.1629
[2]; period dark, round 2, conc 30
  fold_change: -0.2464
[2]; period dark, round 2, conc 37.5
  fold_change: -0.2326
[2]; [8]
  fold_change: -0.3674
[2]; [9]
  fold_change: -0.401
[2]; [10]
  fold_change: -0.744
[2]; period light, round 1, conc 25
  fold_change: 0.4136
[2]; period light, round 2, conc 30
  fold_change: 0.3971
[2]; period light, round 2, conc 37.5
  fold_change: -0.206
